In the supplement of paper PMC10307832:

compound: CC(C)(C)c1cc(NC(=O)Nc2ccc(-c3cn4c(n3)sc3cc(OCCN5CCOCC5)ccc34)cc2)no1 [Quizartinib]; test: relative viability (nuclei count vs DMSO), 5 days (fraction); higher = more cells survive; conditions: 0.1 µM
Summary of the method: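 Cells of lung cancer lines were placed in 1536-well plates and kept overnight at 37 °C. Pinning then delivered five library-drug doses (not always all listed), spaced by √10, onto plates anchored with vehicle, and the cells were left 5 days without changing medium. One step fixed, permeabilised and stained them with Hoechst, and MetaXpress counted nuclei in 4× images. Viability, as a median over plates, is treated-well nuclei divided by vehicle-well nuclei, with acceptance only at control CV below 25% and at least one doubling.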

First: NCI-H23
Second: NCI-H838
The relative viability of the first is higher: 1.05 for the first, 0.843 for the second.

Cell Line NCI-H322M has a relative viability of 0.978.

compound: CC(C)(C)c1cc(NC(=O)Nc2ccc(-c3cn4c(n3)sc3cc(OCCN5CCOCC5)ccc34)cc2)no1 [Quizartinib] + CS(=O)(=O)N1CCN(Cc2cc3nc(-c4cccc5[nH]ncc45)nc(N4CCOCC4)c3s2)CC1 [Pictilisib] (partner 1 µM); test: relative viability (nuclei count vs DMSO), 5 days (fraction); higher = more cells survive; conditions: first compound 0.001 µM
Summary of the method: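 Relative viability divides the nuclei count in treated wells by that in vehicle wells. Lung cancer cell lines were seeded in 1536-well plates, dosed by pin tool the next day, and fixed and stained after 5 days in one step with final 0.05% Triton X-100, 1% formaldehyde and 1 ug/ml Hoechst. Dosing was a single drug or a fixed anchor-drug dose plus five library-drug doses (not always all listed) in √10 steps, and values are medians of duplicate plates imaged at 4×.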

First: NCI-H2009
Second: EBC-1
The relative viability of the first is higher: 0.475 for the first, 0.423 for the second.

First: NCI-H1915
Second: NCI-H2347
The relative viability of the first is higher: 0.838 for the first, 0.628 for the second.

Going from ABC-1 to NCI-H1734, the relative viability rises from 0.502 to 0.508.

First: HCC-78
Second: COR-L 105
The relative viability of the first is lower: 0.21 for the first, 0.397 for the second.

First: HCC-15
Second: HARA
The relative viability of the first is higher: 0.433 for the first, 0.345 for the second.

First: NCI-H1975
Second: NCI-H1944
The relative viability of the first is lower: 0.288 for the first, 0.347 for the second.

First: NCI-H2126
Second: EMC-BAC-2
The relative viability of the first is lower: 0.473 for the first, 0.561 for the second.

Going from SK-LU-1 to IA-LM, the relative viability falls from 0.545 to 0.356.

Compared with NCI-H2170, NCI-H661 is higher in relative viability: 0.388 for the first, 0.425 for the second.

First: NCI-H358
Second: CAL-12T
The relative viability of the first is lower: 0.297 for the first, 0.47 for the second.

Compared with LK-2, HOP-62 is lower in relative viability: 0.594 for the first, 0.377 for the second.

Compared with PC-14, NCI-H1993 is higher in relative viability: 0.634 for the first, 0.917 for the second.

Compared with NCI-H2405, A549 is lower in relative viability: 0.614 for the first, 0.457 for the second.

Compared with NCI-H3122, A-427 is higher in relative viability: 0.625 for the first, 0.702 for the second.

Going from LOU-NH91 to NCI-H596, the relative viability falls from 0.431 to 0.427.

Going from NCI-H1666 to NCI-H838, the relative viability falls from 0.458 to 0.389.

In the case of NCI-H322M, the relative viability is reported as 0.523.

same assay, conditions: first compound 0.003162 µM

First: NCI-H2009
Second: HCC-366
The relative viability of the first is higher: 0.799 for the first, 0.138 for the second.

First: EBC-1
Second: NCI-H1915
The relative viability of the first is lower: 0.285 for the first, 0.875 for the second.

First: NCI-H2347
Second: ABC-1
The relative viability of the first is higher: 0.958 for the first, 0.683 for the second.

Going from NCI-H1734 to HCC-78, the relative viability falls from 0.472 to 0.185.

Compared with COR-L 105, HCC-15 is higher in relative viability: 0.49 for the first, 0.788 for the second.

Going from HARA to NCI-H1975, the relative viability falls from 0.372 to 0.282.

Compared with NCI-H1944, NCI-H2126 is higher in relative viability: 0.327 for the first, 0.504 for the second.

Compared with EMC-BAC-2, SK-LU-1 is lower in relative viability: 0.562 for the first, 0.547 for the second.

Compared with IA-LM, NCI-H2170 is higher in relative viability: 0.299 for the first, 0.327 for the second.

Going from NCI-H661 to NCI-H358, the relative viability falls from 0.388 to 0.332.

First: CAL-12T
Second: LK-2
The relative viability of the first is higher: 0.536 for the first, 0.474 for the second.

Compared with HOP-62, PC-14 is lower in relative viability: 0.7 for the first, 0.633 for the second.

First: NCI-H1993
Second: NCI-H2405
The relative viability of the first is higher: 0.776 for the first, 0.442 for the second.

Compared with A549, NCI-H3122 is higher in relative viability: 0.441 for the first, 0.534 for the second.

Compared with A-427, LOU-NH91 is lower in relative viability: 0.709 for the first, 0.559 for the second.

Compared with NCI-H596, NCI-H1666 is lower in relative viability: 0.332 for the first, 0.325 for the second.

First: NCI-H23
Second: NCI-H838
The relative viability of the first is lower: 0.464 for the first, 0.479 for the second.

NCI-H322M gave a relative viability of 0.545.

same assay, conditions: first compound 0.01 µM

Compared with NCI-H2009, HCC-366 is lower in relative viability: 0.833 for the first, 0.103 for the second.

Going from EBC-1 to NCI-H1915, the relative viability rises from 0.406 to 0.698.

Compared with NCI-H2347, ABC-1 is lower in relative viability: 0.793 for the first, 0.648 for the second.

Compared with NCI-H1734, HCC-78 is lower in relative viability: 0.477 for the first, 0.206 for the second.

Compared with COR-L 105, HCC-15 is higher in relative viability: 0.401 for the first, 0.755 for the second.

Going from HARA to NCI-H1975, the relative viability falls from 0.305 to 0.283.

Compared with NCI-H1944, NCI-H2126 is higher in relative viability: 0.319 for the first, 0.462 for the second.

Going from EMC-BAC-2 to SK-LU-1, the relative viability rises from 0.54 to 0.606.

Compared with IA-LM, NCI-H2170 is lower in relative viability: 0.397 for the first, 0.308 for the second.

Compared with NCI-H661, NCI-H358 is lower in relative viability: 0.364 for the first, 0.305 for the second.

Going from CAL-12T to LK-2, the relative viability rises from 0.308 to 0.826.

Going from HOP-62 to PC-14, the relative viability rises from 0.692 to 0.752.

Going from NCI-H1993 to NCI-H2405, the relative viability falls from 0.812 to 0.327.

First: A549
Second: NCI-H3122
The relative viability of the first is lower: 0.598 for the first, 0.608 for the second.

Going from A-427 to LOU-NH91, the relative viability falls from 0.708 to 0.521.

Going from NCI-H596 to NCI-H1666, the relative viability falls from 0.455 to 0.415.

First: NCI-H23
Second: NCI-H838
The relative viability of the first is higher: 0.49 for the first, 0.356 for the second.

In the case of NCI-H322M, the relative viability is reported as 0.509.

same assay, conditions: first compound 0.03162 µM

Going from NCI-H2009 to HCC-366, the relative viability falls from 0.604 to 0.137.

First: EBC-1
Second: NCI-H1915
The relative viability of the first is lower: 0.37 for the first, 1 for the second.

Compared with NCI-H2347, ABC-1 is lower in relative viability: 0.633 for the first, 0.626 for the second.

Compared with NCI-H1734, HCC-78 is lower in relative viability: 0.411 for the first, 0.0784 for the second.

Compared with COR-L 105, HCC-15 is higher in relative viability: 0.365 for the first, 0.607 for the second.

Compared with HARA, NCI-H1975 is lower in relative viability: 0.3 for the first, 0.284 for the second.

First: NCI-H1944
Second: NCI-H2126
The relative viability of the first is lower: 0.322 for the first, 0.519 for the second.

Going from EMC-BAC-2 to SK-LU-1, the relative viability falls from 0.511 to 0.491.

Compared with IA-LM, NCI-H2170 is higher in relative viability: 0.231 for the first, 0.42 for the second.

Going from CAL-12T to LK-2, the relative viability rises from 0.398 to 0.526.

First: HOP-62
Second: PC-14
The relative viability of the first is higher: 0.831 for the first, 0.576 for the second.

Going from NCI-H1993 to NCI-H2405, the relative viability falls from 0.807 to 0.44.

Going from A549 to NCI-H3122, the relative viability rises from 0.211 to 0.626.

Compared with A-427, LOU-NH91 is lower in relative viability: 0.68 for the first, 0.465 for the second.

Compared with NCI-H596, NCI-H1666 is lower in relative viability: 0.418 for the first, 0.399 for the second.

Compared with NCI-H23, NCI-H838 is lower in relative viability: 0.568 for the first, 0.39 for the second.

Work on NCI-H322M yielded a relative viability of 0.533.

same assay, conditions: first compound 0.1 µM

First: NCI-H2009
Second: HCC-366
The relative viability of the first is higher: 0.737 for the first, 0.138 for the second.

Compared with EBC-1, NCI-H1915 is higher in relative viability: 0.452 for the first, 1.05 for the second.

Compared with NCI-H2347, ABC-1 is lower in relative viability: 0.783 for the first, 0.769 for the second.

Going from NCI-H1734 to HCC-78, the relative viability falls from 0.44 to 0.216.

First: COR-L 105
Second: HCC-15
The relative viability of the first is lower: 0.371 for the first, 0.707 for the second.

Going from HARA to NCI-H1975, the relative viability falls from 0.477 to 0.281.

Going from NCI-H1944 to NCI-H2126, the relative viability rises from 0.31 to 0.541.

Going from EMC-BAC-2 to SK-LU-1, the relative viability falls from 0.592 to 0.588.
